Experimental data published in patent US20230101022A1, “GINSENOSIDE M1 AS A MODULATOR OF A[…] AND ITS USE FOR TREATING DISEASES OR […] SYMPTOMS CAUSED BY CORONAVIRUS” (priority 2020, published 2023).

How the values were obtained:
ACE2 [1] = experiment: IHC of ACE2 in the renal tissue of SHR/WKY rats; assay type: in vivo, rat; details: SHR, 20 mg/kg oral once daily for 42 days, IHC (FIG. 2)
Method: (§1) A total of 20 Wistar-Kyoto rats (WKY) and 20 SHR (male, 16˜17 weeks old) animals were grouped into four: WKY group (8 WKY, orally administered 0.5% CMC-Na); SHR group (8 SHR, orally administered 0.5% CMC-Na); WKY+Ginsenoside M1 group (8 WKY, orally administered 20 mg/kgGinsenoside M1); SHR +Ginsenoside M1 group (8 SHR, orally administered 20 mg/kg Ginsenoside M1). Ginsenoside M1 or placebo administration was carried out once daily for 42 days is was followed by animal sacrifice and blood and renal tissue sample collection. The renal tissue specimens underwent fixation with 4% formalin (histopathology) or were snap-frozen with liquid nitrogen and kept at −80° C. for reverse transcription quantitative real-time polymerase chain reaction (RT-qPCR) and enzyme-linked immunosorbent assay (ELISA).
(§2) ACE and ACE2 primary antibodies were produced by Bioss Antibodies. Peroxidase-linked goat anti-rabbit secondary antibodies and the DAB and two-step rabbit IHC kits were provided by ZSGB-BIO. IHC was carried out as proposed by ZSGB-BIO.

ACE [2] = experiment: IHC of ACE in the renal tissue of mice (infusion model); assay type: in vivo; details: C57BL/6 mice infused saline or Ang II, 20 mg/kg oral daily for 14 days, IHC (FIG. 4)
Method: (§3) A total of twenty C57BL/6 mice (male, 10 weeks old) were maintained with rodent chow and water at will. Subcutaneous implantation of a 1002 osmotic minipump was performed at the dorsum of the neck for Ang II (1.5 mg/kg) or normal saline infusion animals were assigned to four groups: Saline group (5 mice, infused with normal saline and orally administered 0.5% CMC-Na); Ang II group (5 mice, infused with Ang II and orally administered 0.5% CMC-Na); Saline+Ginsenoside M1 group (5 mice, infused with normal saline and orally administered 20 mg·kg−1·d−1 Ginsenoside M1); Ang II +Ginsenoside M1 group (5 mice, infused with Ang II and orally administered 20 mg/kg Ginsenoside M1). Ginsenoside M1 or placebo administration was performed daily for 14 days, followed by animal sacrifice and blood and renal tissue sample collection. The renal tissue specimens underwent fixation with 4% formalin (histopathology) or were snap-frozen with liquid nitrogen and kept at −80° C. (RT-qPCR and ELISA).
as §2

ACE2 [3] = experiment: IHC of ACE2 in the renal tissue of mice (infusion model); assay type: in vivo; details: C57BL/6 mice infused Ang II, 20 mg/kg oral daily for 14 days, IHC (FIG. 4), vs the other three groups
Method: as §3, §2

ACE [4] = experiment: IHC of ACE in the renal tissue of SHR/WKY rats; assay type: in vivo, rat; details: either WKY or SHR, 20 mg/kg oral once daily for 42 days, IHC (FIG. 2)
Method: as §1, §2

[5] = test system: Ang II and Ang-(1-7) levels in the renal tissue; experiment: Ang II and Ang-(1-7) level assessment in the renal tissue of mice infused Ang II (ELISA); assay type: in vivo; details: C57BL/6 mice infused Ang II, 20 mg/kg oral daily for 14 days, ELISA (FIG. 3), vs Ang II group
Method: as §3
(§4) The supernatants of renal specimens were prepared as follows. A total of 100 mg of the renal tissue was homogenized in 900 μL of ice-cold normal saline and submitted to centrifugation (1000 g, 4° C. for 15 min). The resulting supernatants were kept at −80° C. until analysis with Ang II and Ang-(1-7) ELISA kits, respectively, in accordance with the manufacturer's protocols.

[6] = test system: Ang II and Ang-(1-7) levels in the renal tissue; experiment: Ang II and Ang-(1-7) level assessment in the renal tissue of SHR/WKY rats (ELISA); assay type: in vivo, rat; details: 20 mg/kg oral once daily for 42 days, ELISA (FIG. 1)
Method: as §1, §4

[7] = test system: bleomycin-induced lung fibrosis; experiment: Bleomycin-induced lung alveolitis and fibrosis in mice (Szapiel scoring); assay type: in vivo
Method: The animals were randomly divided into 5 groups as: (1) Saline group: 0.9% saline (200 μL) injection via the tail vein; (2) ACE2 group: a single intraperitoneal injection of ACE2 (0.2 mg/kg); (3) BLM group: a single injection of bleomycin at 150 mg/kg via the tail vein; and (4) BLM+ACE2 group: an injection of bleomycin at 150 mg/kg via the tail vein, followed by an intraperitoneal injection of ACE2 at 0.2 mg/kg. (5) BLM+ACE2+M1 group: an injection of bleomycin at 150 mg/kg via the tail vein, followed by an intraperitoneal injection of 0.2 mg/kg ACE2 and 60mg/kg M1. After administration, ten animals randomly selected from each group were euthanized on days 7, 14 and 28 by cervical dislocation.
Administration of bleomycin is a well-characterized model of pulmonary alveolitis or fibrosis in mice. The fibrotic changes in the lungs were determined using the Szapiel scoring method, higher score indicating greater disease condition. […] On day 28, in the BLM group, alveolitis spontaneously resolved; however, derangement of the alveolar architecture continued, and fibrosis persisted, characterized by diffuse, dense, thick collagen bundles and fibroblast foci.

[8] = day 14, bleomycin 150 mg/kg tail vein, ACE2 0.2 mg/kg i.p.

Row | Molecule | ACE2 amounts in the renal tissue (ACE2 [1]) | ACE expression in the renal tissue (ACE [2]) | ACE2 expression levels in the renal tissue (ACE2 [3]) | ACE expression in the renal tissue (ACE [4]) | Ang II levels in the renal tissue [5] | Ang-(1-7) levels in the renal tissue [5] | Ang II levels in the renal tissue ([6]; SHR, vs SHR group) | Ang-(1-7) amounts in the renal tissue ([6]; SHR, vs SHR group) | Ang II levels in the renal tissue ([6]; WKY) | Signs of alveolitis or fibrosis without bleomycin ([7]; ACE2 group: single i.p. injection 0.2 mg/kg, no bleomycin, days 7, 14 and 28) | Pathological changes in the lung (alveolitis) ([7]; day 7, bleomycin 150 mg/kg tail vein, ACE2 0.2 mg/kg i.p.) | Alveolitis (Szapiel scoring) [7, 8] | Fibrosis (Szapiel scoring) [7, 8] | Alveolitis (Szapiel scoring) ([7]; day 28, bleomycin 150 mg/kg tail vein, ACE2 0.2 mg/kg i.p., with or without M1 60 mg/kg)
1 | CC(C)=CCC[C@](C)(O[C@@H]1O[C@H](CO)[C@@H](O)[C@H](O)[C@H]1O)[C@H]1CC[C@]2(C)[C@@H]1[C@H](O)C[C@@H]1[C@@]3(C)CC[C@H](O)C(C)(C)[C@@H]3CC[C@]12C [Ginsenoside M1, 20-O-β-D-glucopyranosyl-20(S)-protopanaxadiol] | further upregulate | no marked differences | markedly elevated | no significant effect | attenuate this increase significantly | significant increase compared with the Ang II group | significantly reduced | significantly higher values compared with the SHR group | limited effects |  |  |  |  | 
2 | ACE2: recombinant mouse ACE2 (angiotensin-converting enzyme 2) given by intraperitoneal injection (protein, UniProt Q8R0I0 18-805, looked up) Angiotensin-converting enzyme …: QSLTEENAKTFLNNFNQEAEDLSYQSSLASWNYNTNITEENAQKMSEAAAKWSAFYEEQSKTAQSFSLQEIQTPIIKRQLQALQQSGSSALSADKNKQLNTILNTMSTIYSTGKVCNPKNPQECLLLEPGLDEIMATSTDYNSRLWAWEGWRAEVGKQLRPLYEEYVVLKNEMARANNYNDYGDYWRGDYEAEGADGYNYNRNQLIEDVERTFAEIKPLYEHLHAYVRRKLMDTYPSYISPTGCLPAHLLGDMWGRFWTNLYPLTVPFAQKPNIDVTDAMMNQGWDAERIFQEAEKFFVSVGLPHMTQGFWANSMLTEPADGRKVVCHPTAWDLGHGDFRIKMCTKVTMDNFLTAHHEMGHIQYDMAYARQPFLLRNGANEGFHEAVGEIMSLSAATPKHLKSIGLLPSDFQEDSETEINFLLKQALTIVGTLPFTYMLEKWRWMVFRGEIPKEQWMKKWWEMKREIVGVVEPLPHDETYCDPASLFHVSNDYSFIRYYTRTIYQFQFQEALCQAAKYNGSLHKCDISNSTEAGQKLLKMLSLGNSEPWTKALENVVGARNMDVKPLLNYFQPLFDWLKEQNRNSFVGWNTEWSPYADQSIKVRISLKSALGANAYEWTNNEMFLFRSSVAYAMRKYFSIIKNQTVPFLEEDVRVSDLKPRVSFYFFVTSPQNVSDVIPRSEVEDAIRMSRGRINDVFGLNDNSLEFLGIHPTLEPPYQPPVTIWLIIFGVVMALVVVGIIILIVTGIKGRKKKNETKREENPYDSMDIGKGESNAGFQNSDDAQTSF |  |  |  |  |  |  |  |  |  | No signs of alveolitis or fibrosis | did not significantly alter | significantly attenuated | significantly attenuated | only mild to moderate alveolitis
